According to patent US9914739B2, “6H-furo[2,3-E]indole compounds for the treatment of hepatitis C” (BRISTOL-MYERS SQUIBB COMPANY, priority 2014, dated 2018):

What was measured:
[1] = test system: genotype 1b (Con-1) HCV replicon; test: HCV replicon luciferase assay, genotype 1b; type: cell-based; settings: Hepatitis C virus, Huh-7, 72 h, Huh-7 cells with genotype 1b HCV replicon, Renilla luciferase, 3 days incubation; class symbol
Procedure: The cell lines used to evaluate compounds consist of a human hepatocyte derived cell line (Huh-7) that constitutively expresses a genotype 1b (Con-1) HCV replicon or a genotype 1b (Con-1) HCV replicon with an asparagine replacing the cysteine at amino acid 316, or a genotype 2a (JFH-1) replicon, containing a Renilla luciferase reporter gene. These cells were maintained in Dulbecco's modified Eagle medium (DMEM) containing 10% FBS, 100 U/mL penicillin/streptomycin and 1.0 mg/mL G418.
To evaluate compound efficacy, titrated compounds were transferred to sterile 384-well tissue culture treated plates, and the plates were seeded with HCV replicon cells (50 μL at a density of 2.4×10^3 cells/well) in DMEM containing 4% FBS (final DMSO concentration at 0.5%). After 3 days incubation at 37° C., cells were analyzed for Renilla Luciferase activity using the EnduRen substrate (Promega cat #E6485) according to the manufacturer's directions. Briefly, the EnduRen substrate was diluted in DMEM and then added to the plates to a final concentration of 7.5 μM. The plates were incubated for at least 1 h at 37° C. then read on a Viewlux Imager (PerkinElmer) using a luminescence program. The 50% effective concentration (EC50) was calculated using the four-parameter logistic formula noted above.

HCV = settings: cited from earlier work

Compound	EC50 [1] [µM]	also measured
CCc1c[nH]c2c(OC(C)C)cc3c(C(=O)NC)c(-c4ccc(F)cc4)oc3c12 [Compound 6003]	> 1	–
CCN(C)C(=O)c1c(-c2ccc(F)cc2)oc2c1cc(OC(C)C)c1c2ccn1CC [Compound 6004]	> 1	–
CCc1cn(CC)c2c(OC(C)C)cc3c(C(=O)NC)c(-c4ccc(F)cc4)oc3c12 [Compound 6005]	> 1	–
CCN(CC(C)(C)C)C(=O)c1cccc(-c2cc3c(C(=O)NC)c(-c4ccc(F)cc4)oc3c3ccn(CC)c23)c1 [Compound 6007]	0.1 to 1	–
CNC(=O)c1c(-c2ccc(F)cc2)oc2cc(N(CCO)S(C)(=O)=O)c(C3CC3)cc12 [HCV-796]	–	hepatic toxicity (HCV; extended dosing of the combination regimens): hepatic toxicity observed
alpha-interferon and ribavirin	–	sustained efficacy (HCV; patients, combination therapy): 40 % of patients
pegylated alpha-interferon	–	efficacy as monotherapy compared with unmodified alpha-interferon (HCV; recent clinical results, monotherapy): superior to unmodified alpha-interferon
